Values quoted from earlier work as cited in patent US11528929B2, “Composition for treatment of overactive bladder” (priority 2019, dated 2022).

Settings: pH at 50% bound and 50% in free form

isoelectric pH (dissociation point): 3.41
Compound: O=C(O)CC(O)C(=O)O (stereo not shown) [malic acid]
